Data on one compound can be found in patent US12234239B2, “Crystalline forms of 2-(3-(4-(7H-pyrrolo[2,3-d]pyrimidin-4-yl)-1H-pyrazol-1-yl)-1-(cyclopropylsulfonyl)azetidin-3-yl)acetonitrile” (Elanco US, Inc., priority 2019, dated 2025).

This assay concerns pruritus and skin lesions associated with allergic dermatitis in dogs. Put plainly: Control of pruritus and skin lesions associated with allergic dermatitis in dogs (four-arm, blinded, randomized, placebo-controlled study). To be noted: for Treatment success LSMean (response rate): oral tablets (Form II) once daily, success = 2 unit or more reduction from baseline on 10-unit owner-assessed pruritus VAS in at least 5 of first 7 treatment days, generalized linear mixed model. Format: in vivo. The protocol: Control of Pruritus and Skin Lesions Associated with Allergic Dermatitis in Dogs
This study evaluated 2-(3-(4-(7H-pyrrolo[2,3-d]pyrimidin-4-yl)-1H-pyrazol-1-yl)-1-(cyclopropylsulfonyl)azetidin-3-yl)acetonitrile for control of pruritus and skin lesions associated with allergic dermatitis in dogs.
Oral tablets were prepared containing Form II 2-(3-(4-(7H-pyrrolo[2,3-d]pyrimidin-4-yl)-1H-pyrazol-1-yl)-1-(cyclopropylsulfonyl)azetidin-3-yl)acetonitrile, as follows. Oral tablet blends were prepared containing crystal Form II 2-(3-(4-(7H-pyrrolo[2,3-d]pyrimidin-4-yl)-1H-pyrazol-1-yl)-1-(cyclopropylsulfonyl)azetidin-3-yl)acetonitrile, microcrystalline cellulose, pregelantinized starch, dicalcium phosphate dehydrate, oxide pigment, and magnesium stearate. The tablet blends were pressed giving tablet cores containing 2.4 mg, 3.6 mg, 5.4 mg, and 16 mg of crystal Form II 2-(3-(4-(7H-pyrrolo[2,3-d]pyrimidin-4-yl)-1H-pyrazol-1-yl)-1-(cyclopropylsulfonyl)azetidin-3-yl)acetonitrile, as well as a placebo core. The tablet cores were coated with a mixture containing water and Opadry 20A150011 Red, thereby giving the final oral tablets for the study.
A four-arm, blinded, randomized, placebo-controlled study was conducted to assess the efficacy of daily administration of 2-(3-(4-(7H-pyrrolo[2,3-d]pyrimidin-4-yl)-1H-pyrazol-1-yl)-1-(cyclopropylsulfonyl)azetidin-3-yl)acetonitrile for control of pruritus and skin lesions associated with allergic dermatitis in dogs. Subjects were randomized to one of the following treatment arms: API-containing Tablets, 0.25-0.40 mg/kg Body Weight; API-containing Tablets, 0.40-0.60 mg/kg Body Weight; API-containing Tablets, 0.60-0.80 mg/kg Body Weight; and Placebo Tablets, 0.0 mg/kg Body Weight.
Dogs enrolled in the study received once daily treatment for approximately 28 days. Baseline data (clinical history, concomitant therapies, body weight, physical examinations and assessments of pruritus and atopic dermatitis) were collected for each dog at enrollment (Day 0). Additional health assessments, physical examinations, body weight measurements, assessments of pruritus and atopic dermatitis, and collection of blood samples for hematology, serum chemistry and pharmacokinetic (PK) analysis occurred consistent with standard testing protocols.
The primary effectiveness variable was treatment success. A treatment success was defined as a 2 unit or more reduction from baseline on the 10-unit owner-assessed pruritus Visual-Analog Scale (VAS) in at least 70% of the first 7 treatment days (i.e., in at least 5 of the first 7 treatment days). Dogs withdrawn from the study within the first 7 days of treatment due to a perceived lack of effectiveness were considered treatment failures.
Random effects were fit for site and site treatment with a variance component covariance structure and a compound symmetry covariance structure was fit for individual dogs.

Consider `N#CCC1(n2cc(-c3ncnc4[nH]ccc34)cn2)CN(S(=O)(=O)C2CC2)C1` [2-(3-(4-(7H-pyrrolo[2,3-d]pyrimidin-4-yl)-1H-pyrazol-1-yl)-1-(cyclopropylsulfonyl)azetidin-3-yl)acetonitrile], for which the “Treatment success LSMean (response rate)” value (0.25-0.40 mg/kg) was determined as 0.4640 and the “Treatment success LSMean (response rate)” value (0.40-0.60 mg/kg) is 0.5590. For the same compound, for the setting “highest dose group 0.6-0.8 mg/kg once daily, minimum effective dose = success in at least 50% of the dogs”, the “primary endpoint for treatment success” value was “achieved the primary endpoint for treatment success”. For the same compound, the “estimated marginal mean response rate compared with placebo rate” value runs as follows: (low dose (0.24-0.4 mg/kg) once daily) “higher than the placebo rate”; (medium dose (0.4-0.6 mg/kg) once daily) “higher than the placebo rate”. Where the note is “once daily 0.6-0.8 mg/kg, at day 28”, the “improvement in lesion scores” value is “significant improvement in lesion scores”. For the same compound, the improvements in pruritus result (once daily dosing with 0.6-0.8 mg/kg, from first dose) is on record as “significant improvements in pruritus from first dose”.
